Measurements from patent EP2616456B1, “NUCLEAR EXPORT INHIBITORS” (Universitätsmedizin der Johannes Gutenberg-Universität Mainz, priority 2010, dated 2012).
Entries after “also recorded” stand apart in the source; their conditions may differ.

Key:
HeLa cells = assay: Cell viability (CellTiter-Glo) and cell death, HeLa; type: cell-based; conditions: for cell death induced by treatment: HeLa (cervix carcinoma), 25µM; for viability compared to the control: HeLa, 100µM, 72h, CellTiter-Glo; for IC50: Homo sapiens, compound concentration reducing HeLa cell viability by 50%
Procedure: To test the anti-cancer activity of the compounds, several cancer cell lines, currently used as models for different epithelial cancers and leukemias, were treated with the indicated inhibitors. […] Every 24h, the cell culture medium was replaced by fresh compound-containing medium. 72h post treatment, cell were analyzed by adding 100µl CellTiter-Glo® assay reagent (Promega). Luminescence was measured with a LuminoskanAscent device (ThermoScientific). Cells treated with a corresponding amount of DMSO only were use as a control. The luminescence (equals cell viability) of said control was set to 100%.
IC50 value corresponds to compound concentration reducing HeLa cell viability by 50%. Topt is the time point post treatment when maximum nuclear export inhibition was observed by fluorescence microscopy. Table 4: Functional characteristics of nuclear export inhibitors
It was assessed whether the export inhibitors also affect the viability of non-malignant human cells, precluding their potential (pre)clinical use. 10^3 freshly isolated non-malignant primary human fibroblasts (HTF-8) or HeLa cells/well were seeded and 24h later treated with the indicated compounds (final concentration: 100µM). Every 24h cell culture medium was replaced by freshly prepared compound-containing medium. 72h post treatment the cells were analyzed by adding 100µl CellTiter-Glo® assay reagent, and luminescence measured with a LuminoskanAscent (ThermoScientific). Cells treated with DMSO only were used as a control. The fluorescence measured (equals cell viability) with said control was set to 100%.

human CRM1 (Crm1-HA) = human CRM1 (Crm1-HA) (Homo sapiens, UniProt O14980); assay: In vitro pull-down of Crm1-HA with GST-SurvivinNES-GFP beads; type: binding; conditions: preincubation 1mM, 30min at 4°C
Procedure: The binding of LMB and of compounds C3 and C5 to CRM1 was examined by in vitro pull-down assays as described by Stauber et al., 2006. Briefly, in vitro coupled transcription/translation was performed using the TNT reticulocyte lysate system (Promega, Madison, WI, USA) supplemented with methionine (Promega, Madison, WI, USA) and plasmid pCrm1_HA (1µg), encoding a hemagglutinin epitope-tagged version of human CRM1 (Crm1-HA), as the template. Equal amounts of the Crm1-HA TNT reaction were preincubated with either DMSO (negative control; 0.1%), LMB (400nM, final concentration), C3 (1 mM; final concentration) or C5 (1mM; final concentration) in binding-buffer containing 5mM MgCl2 (AppliChem, Darmstadt, Germany), 2mM GTP (PEQLAB, Erlangen, Germany), 50mM Hepes pH 7.9 (AppliChem, Darmstadt, Germany), 200mM KCI (AppliChem, Darmstadt, Germany), 0.4% Tween 20 (AppliChem, Darmstadt, Germany), supplemented with complete protease inhibitor cocktail (Roche, Mannheim, Germany) for 30min at 4°C. Subsequently, GST-Sepharose beads loaded with 25µg recombinant GST-SurvivinNES-GFP and 5µg GST-RanQ96L were added to each drug-treated TNT reaction. Recombinant GST-SurvivinNES-GFP and GST-RanQ96L were purified from bacteria as described by Stauber et al., 2006. Pull-down was performed for 4h at 4°C in a rotating wheel. Samples were then centrifuged (3500rpm, 1min, 4°C) to recover the GST-SurvivinNES-GFP beads with bound Crm1-HA. Beads were washed three times with binding-buffer (500µl each washing step, 3500rpm, 1min, 4°C). Finally, bound proteins were eluted by adding 25µl 2xSDS-sample buffer (250mM Tris-HCl pH 6.8; 2% w/v SDS, 20% glycerol, 2% β-mercaptoethanol, 0.002% w/v bromophenol blue) and incubating at 95°C for 2min. Samples were separated by SDS-gelelectrophoresis and analyzed by immunoblot analysis as described by Stauber et al., 2006. Crm1-HA was detected with HA specific antibodies (MMS-101R, Covance, New Jersey, USA). GFP served as the loading control and was visualized with GFP specific antibodies (sc-8334, Santa Cruz Biotechnology, Heidelberg, Germany).

Survivin = assay: Nuclear export of Survivin-GFP fusion stably expressed in A431 cells; type: cell-based; conditions: A431, stable expression, 25µM
From the text: Nuclear export of Survivin is crucial for its tumor promoting cytoprotective activity (Engels et al., 2007; Knauer et al., 2007a; Knauer et al., 2007b).

Sequence of human CRM1 (Crm1-HA) (O14980 whole entry): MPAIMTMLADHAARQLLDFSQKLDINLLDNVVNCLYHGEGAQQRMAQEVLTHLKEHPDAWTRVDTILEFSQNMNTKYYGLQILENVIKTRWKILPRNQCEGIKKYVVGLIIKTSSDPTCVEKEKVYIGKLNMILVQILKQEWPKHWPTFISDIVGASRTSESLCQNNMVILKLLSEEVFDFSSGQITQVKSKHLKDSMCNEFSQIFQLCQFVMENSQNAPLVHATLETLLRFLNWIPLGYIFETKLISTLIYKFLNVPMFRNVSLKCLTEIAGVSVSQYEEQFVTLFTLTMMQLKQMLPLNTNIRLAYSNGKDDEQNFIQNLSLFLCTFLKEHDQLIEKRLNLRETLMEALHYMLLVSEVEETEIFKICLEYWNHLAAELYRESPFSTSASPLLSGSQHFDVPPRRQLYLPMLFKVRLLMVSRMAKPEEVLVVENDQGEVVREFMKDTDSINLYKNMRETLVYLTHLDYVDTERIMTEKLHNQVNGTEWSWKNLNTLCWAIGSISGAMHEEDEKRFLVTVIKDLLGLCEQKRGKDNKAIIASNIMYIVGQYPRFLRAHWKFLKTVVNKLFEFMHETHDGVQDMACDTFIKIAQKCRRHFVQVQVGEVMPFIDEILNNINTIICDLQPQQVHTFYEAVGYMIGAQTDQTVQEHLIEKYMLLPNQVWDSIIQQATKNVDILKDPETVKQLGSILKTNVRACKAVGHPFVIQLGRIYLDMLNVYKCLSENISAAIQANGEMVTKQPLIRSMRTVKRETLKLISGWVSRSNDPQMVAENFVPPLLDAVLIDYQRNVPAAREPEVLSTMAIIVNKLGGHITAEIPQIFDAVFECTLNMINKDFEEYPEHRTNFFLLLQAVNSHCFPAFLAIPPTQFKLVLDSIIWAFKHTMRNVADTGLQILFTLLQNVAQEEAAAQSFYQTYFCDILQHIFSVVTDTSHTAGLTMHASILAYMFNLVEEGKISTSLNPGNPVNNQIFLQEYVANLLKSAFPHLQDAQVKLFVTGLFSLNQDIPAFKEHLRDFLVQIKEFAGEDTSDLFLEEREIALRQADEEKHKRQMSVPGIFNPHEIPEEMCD

Row | SMILES | cell death induced by treatment (HeLa cells) | viability compared to the control (HeLa cells) | IC50 (HeLa cells) [µM] | interaction of Crm1-HA with the export substrate GST-SurvivinNES-GFP (human CRM1 (Crm1-HA)) | Localization of Survivin-GFP fusion (nuclear export of Survivin) (Survivin)
1 | NC(=O)c1c(NC(NC(=O)c2ccccc2F)(C(F)(F)F)C(F)(F)F)sc2c1CCCC2 [Compound C3, 2-[[1,1,1,3,3,3-hexafluoro-2-[(2-fluorobenzoyl)amino]propan-2-yl]amino]-4,5,6,7-tetrahydro-1-benzothiophene-3-carboxamide] | cell death | significantly reduced viability; also recorded: significantly affect the viability | 38 | did not affected the CRM1 binding | –
2 | O=C(NC1CS(=O)(=O)CC1Cl)c1cccc(C(F)(F)F)c1 (stereo not drawn) [Compound C5, N-(4-chloro-1,1-dioxothiolan-3-yl)-3-(trifluoromethyl)benzamide] | cell death | significantly reduced viability; also recorded: significantly affect the viability | 17 | did not affected the CRM1 binding | nuclear accumulation
